Test: Differential thermal analysis (decomposition temperature)
Format: physicochemical
Conditions: ° C. for 2% weight loss
Experimental: The decomposition temperature and the average particle diameter are determined on a flame retardant of the prior art—Exolit® OP 1230.

Row | DTA (decomposition in differential thermal analysis) [°C] | Compound
1 | 330 | COC(=O)CCP(C)(=O)[O-].COC(=O)CCP(C)(=O)[O-].COC(=O)CCP(C)(=O)[O-].[Al+3] [Example 10, H3C—P(═O)(OAl1/3)—CH2—CH2—CO2CH3]
2 | 282 | COC(=O)CCP(C)(=O)[O-].COC(=O)CCP(C)(=O)[O-].[Mg+2] [Example 11, H3C—P(═O)(OMg1/2)—CH2—CH2—CO2CH3]
3 | 334 | COC(=O)CCP(C)(=O)[O-].COC(=O)CCP(C)(=O)[O-].[Zn+2] [Example 12, H3C—P(═O)(OZn1/2)—CH2—CH2—CO2CH3]
4 | 317 | COC(=O)CCP(C)(=O)[O-].COC(=O)CCP(C)(=O)[O-].[Ca+2] [Example 13, H3C—P(═O)(OCa1/2)—CH2—CH2—CO2CH3]
5 | 323 | CCCCCCCCOC(=O)CCP(C)(=O)[O-].CCCCCCCCOC(=O)CCP(C)(=O)[O-].[Zn+2] [Example 14, H3C—P(═O)(OZn1/2)—CH2—CH2—CO2C8H17]

— patent US7838580B2, “Salts of alkyl esters of carboxyethyl(alkyl)phosphinic acid” (Clariant Finance (BVI) Limited, priority 2006, dated 2010)
